Reference: paper PMC9882606, “Rationally designed inhibitors of the Musashi protein-RNA interaction by hotspot mimicry” (Research Square, 2023)

Assays:
[1] = tested on: PC9 cells; assay: CellTiter-Blue, combination with osimertinib, PC9; format: cell-based, human; details: PC9, 3-day treatment, osimertinib with 10 μM compound vs osimertinib alone
Text: With respect to non-small cell lung cancer (NSCLC) specifically, overexpression of MSI2 has been identified as a mechanism underlying resistance to inhibitors of EGFR – and more importantly, depletion of MSI2 by RNA knockdown increased sensitivity to the third-generation EGFR inhibitor osimertinib both in vitro and in vivo [73, 74]. Despite lack of sensitivity to R12–8–44–3 alone, we therefore hypothesized that R12–8–44–3 would sensitize PC9 cells (an EGFR-mutant lung cancer cell line) to osimertinib.

[2] = molecular target: MSI2 (Homo sapiens, UniProt Q96DH6); assay: MS2-TRAP aptamer pull-down reporter assay in HEK293 cells; format: cell-based; design: HEK293 cells (with a high baseline MSI2 expression); endogenous in cells; host or cells: HEK293; details: HEK293, 24 h treatment
Text: Figure 5: Characterization of R12–8–44–3 in a reporter cell line. […] As a positive control, Ro 08–2750 (aka “Ro”) is also included in these studies. (B) Schematic of reporter assay. HEK293 cells are transfected with a plasmid encoding an arbitrary gene (Luc) with UAG repeats (to recruit MSI2) and MS2 repeats (for pulldown) appended to its 3’ UTR. The same vector also includes FLAG-labeled MS2-BP. Upon anti-FLAG immunoprecipitation (IP), the FLAG-labeled MS2-BP allows purification of the Luc mRNA along with any associated factors. (C) Prior to IP, cells express Luc mRNA to a similar extent irrespective of whether they were treated with DMSO, R12-neg, R12–8–44–3, or Ro. (D) Prior to IP (“input”), MSI2 is detected in all samples to a similar extent (as is KU-86 loading control). After pulldown of Luc mRNA, MSI2 is found associated with the mRNA in cells treated with DMSO or R12-neg, but not in cells that had been treated with R12–8–44–3 or Ro. Representative image is shown; quantification is plotted as the average of 2 independent experiments ± S.E.M. Statistical analysis was performed using unpaired two tailed t-test, with * indicating p<0.05. Uncropped Western blots from this experiment are provided as Figure S8.
To determine whether inhibition of MSI1/MSI2 by R12–8–44–3 would apply in a cellular context, we adapted an aptamer pull-down reporter assay that we previously used to validate candidate Musashi target genes. Briefly, our approach is a variation of the MS2-TRAP (MS2-tagged RNA affinity purification) method, which uses bacteriophage protein MS2-BP to extract from cells any factors that associate with RNAs containing a specific stem-loop structure (MS2) from the phage genome. Here, we designed an mRNA construct that would include a series of MS2 hairpins and also a MSI2 recognition sequence. We transfected this construct into cells that also express FLAG-tagged MS2-BP (a protein unrelated to MSI2). By affinity purification using the FLAG tag, proteins bound to the designed mRNA can be extracted from cells.
To test for inhibition of MSI2 in cells, we transfected HEK293 cells (with a high baseline MSI2 expression), with the pMS2-LUC-3’UTR from our previous studies. This vector appends onto the 3’UTR of an arbitrary gene (in this case luciferase) two key elements: UAG-motifs comprising a MSI2 recognition sequence, and a series of five MS2 hairpins. The same vector also encodes the FLAG-MS2-BP fusion needed for affinity purification (Figure 5b). Cells were then treated with each compound of interest for 24 h, and then the cells were subsequently harvested and used for anti-FLAG immunoprecipitation. […] Using qPCR we evaluated the amount of Luc mRNA in cells treated with R12–8–44–3, R12-neg, or Ro, and found this to be unchanged (Figure 5c).

[3] = tested on: EGFR, SMAD3, and MSI2 protein levels; assay: Immunoblot of MSI2 downstream targets in PC9 cells; format: cell-based, human; details: PC9, 5 μM or 20 μM, 48 hours
Description: Figure 7: Cellular characterization of MSI2 inhibition by R12–8–44–3. (A) Quantification of mRNA immunoprecipitation (RIP) results. Cells were treated with 10 μM of the indicated compounds for 8 hours. After immunoprecipitation with anti-MSI2, mRNA targets were quantified. The amount of each target mRNA in the pulldown was calculated relative to the input, and results from all targets were normalized to PTP4A1. Treating cells with R12–8–44–3 disrupted the interaction with all four cognate mRNAs (PTP4A, SMAD3, EGFR, and MSI2). Data are presented as the average ± S.E.M. from at least 3 independent replicates. […] Cells were treated with indicated compounds at two concentrations (5 μM and 20 μM) for 48 hours, then protein levels of relevant MSI2 targets were determined (EGFR, SMAD3, and MSI2). One representative image is shown; quantification is presented as the average ± S.E.M. from at least 3 independent replicates, normalized first to beta-actin and then to DMSO-treated cells. (C) Cell viability dose-response quantified by CellTiter-Blue after 3 days (left) and cell proliferation with 10μM of compounds quantified by clonogenic assay after 7 days (right). […] (D) Cell viability quantified by clonogenic assay of PC9 cell line after 7-day treatment with 2 nM osimertinib (osi alone), osimertinib with 10 μM R12–8–44–3, or osimertinib with 10 μM R12-neg. […]

MSI2, sequence (Q96DH6 whole entry): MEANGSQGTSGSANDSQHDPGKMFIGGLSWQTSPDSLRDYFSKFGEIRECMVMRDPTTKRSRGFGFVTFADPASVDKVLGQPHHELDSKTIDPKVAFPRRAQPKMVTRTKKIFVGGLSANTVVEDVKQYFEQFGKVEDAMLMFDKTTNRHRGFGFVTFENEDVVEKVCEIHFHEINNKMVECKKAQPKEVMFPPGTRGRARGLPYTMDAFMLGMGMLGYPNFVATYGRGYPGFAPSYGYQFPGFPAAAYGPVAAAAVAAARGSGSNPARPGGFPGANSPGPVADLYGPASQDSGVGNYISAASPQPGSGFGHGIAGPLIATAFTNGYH

MSI2 purified with reporter mRNA (anti-FLAG pulldown) [2]: much less MSI2 is purified | total amount of MSI2 in cells ([2]; input prior to IP): unaffected | amount of Luc mRNA in cells (qPCR) ([2]; prior to IP): unchanged
Structure (SMILES): Cc1cc(C(=O)OCc2nc(N)c3c(C)c(C)sc3n2)c(N)cc1F [R12–8–44–3]
cell viability (CellTiter-Blue) in combination with osimertinib [1]: small but statistically significant decrease in cell viability | SMAD3 and EGFR protein levels [3]: phenocopied the effect of MSI2 depletion on these two targets | amount of MSI2 protein [3]: without changing the amount of MSI2
